According to patent US20230142274A1 (SIMCERE PHARMACEUTICAL CO., LTD., priority 2020, published 2023):

Tests used:
Daudi cells = assay: Inhibition of human Daudi lymphoma cell proliferation (Cell-Titer Glo); type: cell-based; details: Homo sapiens, 72 h, 3 days incubation, read-out: Anti-Proliferative Activity Against Daudi cells IC50
Outline: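 Daudi cells in RPMI 1640 with 10% FBS were seeded and grown 24 h, then exposed for 3 days (37 °C, 5% CO2) to 10-point 3-fold serial dilutions at 0.25% final DMSO. Viability was read by CellTiter-Glo ATP luminescence, and IC50 was fitted from % inhibition against top/bottom controls.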

WI-38 cells = assay: Inhibition of human WI-38 embryonic lung cell proliferation (Cell-Titer Glo); type: cell-based; details: Homo sapiens, 72 h, 3 days incubation, read-out: Anti-Proliferative Activity Against WI-38 cells IC50
Description: Introduction of the experimental principle: After the RAD51 inhibitor to be tested was co-incubated with human embryonic lung cells for a period of time, the influence of the test compound on cell proliferation was measured by a method for counting cell proliferation based on the quantitative measurement of intracellular ATP content.
Materials and Cells: WI-38 cells were purchased from ATCC; fetal bovine serum, 1640 medium and penicillin-streptomycin were purchased from Gibco Inc. (U.S.), 96-well plates were purchased from Corning Inc. (U.S.), and Cell-Titer Glo reagent was purchased from Promega Corporation (U.S.).
Cell culture: WI-38 cells were cultured in an EMEM culture medium containing 10% fetal bovine serum and 1% penicillin-streptomycin at 37° C. in an atmosphere containing 5% CO2. Cells in logarithmic growth phase could be used for experiments.
Assay of cell proliferation and viability: Cell-Titer Glo reagent was used to measure the inhibitory activities of the compounds on the proliferation of WI-38 cell strain. The concentration of cells was adjusted, and the cells were seeded in a 96-well plate and cultured at 37° C. in an atmosphere containing 5% CO2 for 24 hours. The powder of the compound was dissolved in 100% DMSO to form a 10 mM solution. 10 μl of the solution of the compound was aspirated and transferred into a 96-well compound plate containing 20 μl of DMSO solution in each well for 3-fold dilution and was then formulated to 10 serial dilutions. Thereafter, 2 μl of the solution of the compound was aspirated from the corresponding well and added correspondingly into a 96-well intermediate compound dilution plate containing 78 μl of complete culture medium in each well. The resultant was mixed well, and the plate was centrifuged at 1000 rpm for 1 minute. Finally, 10 μl of the solution of the compound was aspirated from the corresponding well of the 96-well intermediate compound dilution plate, and transferred into the corresponding well of the cell culture plate containing 90 μl of complete culture medium. The final concentration of DMSO was 0.25%. After the addition of the compound, the cells were continued to be incubated for 3 days at 37° C. in an atmosphere containing 5% CO2. Cell-Titer Glo reagent was added to measure cell viability.
% Compound inhibition was calculated and IC50 of the compound was fitted;
% Compound inhibition=1−100%×(Signal−Bottom)/(Top−Bottom)

[1] = Pharmacokinetic experiment in mouse; type: in vivo; details: female CB17-SCID mice, oral dose 25 mg/kg
Source text: CB17-SCID mice were purchased from Beijing Vital River Laboratory Animal Technology Co., Ltd.
DMSO, HP-β-CD (hydroxypropyl-β-cyclodextrin), PEG400 (polyethylene glycol 400), and Vitamin E TPGS (D-α-tocopherol polyethylene glycol 1000 succinate) were purchased from Sigma.
Six female CB17-SCID mice (20 g to 30 g, aged 4 to 6 weeks) were divided randomly into two groups, with 3 mice in each group. In Group 1, the compound in a vehicle of an aqueous solution containing 5% dimethyl sulfoxide and 95% hydroxypropyl-β-cyclodextrin (10%, w/v) was administered by intravenous injection via tail vein. In Group 2, a corresponding dose of the compound in a vehicle of an aqueous solution containing 30% polyethylene glycol 400 and 70% D-α-tocopherol polyethylene glycol 1000 succinate (10%, w/v) was orally administered. The animals were fed normally with food and water before experiment. The mice in each group underwent intravenous blood collection before administration and at 0.083 h (intravenous injection group only), 0.25 h, 0.5 h, 1 h, 2 h, 4 h, 6 h, 8 h, and 24 h after administration. The collected whole blood samples were placed in K2EDTA anticoagulation tubes and centrifuged for 5 min (4000 rpm, 4° C.) to collect the plasma for testing.
10 μL of the mouse plasma sample was taken, and 150 μL of acetonitrile solvent (containing the internal standard compound) was added to precipitate protein. After the resultant was vortexed for 0.5 min and centrifuged (4700 rpm, 4° C.) for 15 min, the supernatant was subjected to 2-fold dilution with water containing 0.05% (v/v) FA and was then subjected to quantitative measurement in LC-MS/MS system (AB Sciex Triple Quad 6500+). A calibration standard curve was prepared in CB17-SCID mouse plasma along with quality control samples to determine the plasma concentration. As for a 10× diluted sample, 2 μL of sample was taken and 18 μL of blank plasma was added. After being vortexed for 0.5 min, the mixture was added with 300 μL of acetonitrile solvent (containing the internal standard compound) so as to precipitate protein. The rest of the processing steps were the same as those for the undiluted samples.

[2] = Metabolic stability in liver microsomes (CD-1 mouse); type: in vitro ADME; details: pH 7.4; CD-1 mouse liver microsomes 0.5 mg/mL, compound 1 μM, NADPH 1 mM, 37° C.
Description: (§1) 1. Source of liver microsomes: human liver microsomes (Corning 452117), CD-1 mouse liver microsomes (XENOTECH M1000)
(§2) 1. Formulation of 100 mM phosphate buffer solution (PBS): 7.098 g of Na2HPO4 was weighed and ultrasonically dissolved in 500 mL of pure water to form Solution A. 3.400 g of KH2PO4 was weighed and ultrasonically dissolved in 250 mL of pure water to form Solution B. Solution A was placed in a stirrer and Solution B was slowly added until the pH value reached 7.4, thus formulating 100 mM PBS buffer solution.
(§3) The reaction system was formulated according to Table 3 below.
(§4) 3. The reaction system was placed in a water bath at 37° C. and pre-incubated for 10 minutes. 40 μL of 10 mM NADPH solution (NADPH was dissolved in 100 mM phosphate buffer solution) was added into the reaction system, and the final concentration of NADPH was 1 mM. 40 μL of Phosphate buffer solution was used instead of the NADPH solution as a negative control. The negative control was used to rule out the influence caused by the chemical stability of the compounds per se.
(§5) 4. The reaction system was added with 4 μL of 100 μM the compound of the present disclosure and Verapamil (the positive control compound) (DMSO as the vehicle), so that the reaction was initiated. The final concentration of the compound was 1 μM.
(§6) 5. At 0.5, 15, 30, 45 and 60 minutes, after being well mixed in a vortex oscillator, 50 μL of the incubated samples were taken out respectively, and the reaction was terminated with ice acetonitrile (4-fold) containing an internal standard. The samples were centrifuged at 3220 g for 45 minutes. After the centrifugation, 90 μL of the supernatants were transferred to a sample plate and mixed well with 90 μL of ultrapure water for LC-MS/MS analysis.
(§7) All data were calculated by Microsoft Excel software. Peak areas were determined from the extracted ion chromatograms. The in-vitro half-life (t1/2) of the parent drug was determined by the linear fitting of the natural logarithm of the elimination percentage of the parent drug versus time.
(§8) The in-vitro half-life (t1/2) was calculated from the slope: […]

[3] = Metabolic stability in liver microsomes (human); type: in vitro ADME; details: pH 7.4; Human being liver microsomes 0.5 mg/mL, compound 1 μM, NADPH 1 mM, 37° C.
Description: as §1, §2, §3, §4, §5, §6, §7, §8

| IC50 (Daudi cells) [nM] | Drug Exposure [1] [µg·h/mL] | Max. Drug Conc. [1] [ng/mL] | Peak Time of Drug Conc. [1] [h] | half-life ([1]; mouse, plasma, read-out: Drug Elimination Half-life (converted)) [h] | half-life at 1 μM [2] [h] | half-life at 1 μM [3] [h] | SMILES | IC50 (WI-38 cells) [nM] |
| --- | --- | --- | --- | --- | --- | --- | --- | --- |
| 8 | 137.892 | 32840 | 0.75 | 5 | – | – | CC(C)OC(=O)NC1CCC(c2ncc(-c3ccc(Nc4cnn(C)c4)cc3S(=O)(=O)C3CC3)s2)CC1 (stereo not drawn) [Example 70, isopropyl trans-N-[4-[5-[2-cyclopropylsulfonyl]-4-[(1-methylpyrazol-4-yl)amino]phenyl]thiazol-2-yl]cyclohexyl]carbamate] | 21000 |
| 4 | – | – | – | – | 4.52 | 7.03 | CC(C)OC(=O)N[C@H]1CC[C@H](c2ncc(-c3ccc(Nc4cc(CO)[nH]n4)cc3S(=O)(=O)C3CC3)s2)CC1 [Example 72, isopropyl trans-(4-(5-(2-(cyclopropylsulfonyl)-4-((5-(hydroxymethyl)-1H-pyrazol-3-yl)amino)phenyl)thiazol-2-yl)cyclohexyl)carbamate] | 20000 |
| 7 | – | – | – | – | 1.87 | 1.12 | CC(C)OC(=O)NC1CCC(c2ncc(-c3ccc(Nc4cnn(CCO)c4)cc3S(=O)(=O)C3CC3)s2)CC1 (stereo not drawn) [Example 84, isopropyl trans-N-[4-[5-[2-cyclopropylsulfonyl]-4-[[1-(2-(hydroxyethyl)pyrazol-4-yl]amino]phenyl]thiazol-2-yl]cyclohexyl]carbamate] | > 25000 |
| 0.6 | – | – | – | – | 0.85 | 1.37 | CC(C)OC(=O)NC1CCC(c2ncc(-c3ccc(Nc4cnn(CCF)c4)cc3S(=O)(=O)C3CC3)s2)CC1 (stereo not drawn) [Example 85, isopropyl trans-N-[4-[5-[2-cyclopropylsulfonyl]-4-[[1-(2-fluoroethyl)pyrazol-4-yl]amino]phenyl]thiazol-2-yl]cyclohexyl]carbamate] | 17000 |
| 3 | – | – | – | – | 1.4 | 1.78 | CC(C)OC(=O)NC1CCC(c2ncc(-c3ccc(Nc4cnn(C5COC5)c4)cc3S(=O)(=O)C3CC3)s2)CC1 (stereo not drawn) [Example 86, isopropyl trans-N-[4-[5-[2-cyclopropylsulfonyl]-4-[[1-(oxetan-3-yl)pyrazol-4-yl]amino]phenyl]thiazol-2-yl]cyclohexyl]carbamate] | > 25000 |
| 4 | – | – | – | – | – | – | Cc1cc(Nc2ccc(-c3cnc([C@H]4CC[C@H](NC(=O)OC(C)C)CC4)s3)c(S(=O)(=O)C3CCC3)c2)n[nH]1 [Example 88, isopropyl trans-(4-(5-(2-(cyclobutylsulfonyl)-4-((5-methyl-1H-pyrazol-3-yl)amino)phenyl)thiazol-2-yl)cyclohexyl)carbamate] | > 25000 |
| 28 | – | – | – | – | – | – | Cc1cc(Nc2ccc(-c3cnc([C@H]4CC[C@H](NC(=O)OC(C)C)CC4)s3)c(S(=N)(=O)C3CCC3)c2)n[nH]1 (stereo partly drawn) [Example 101, isopropyl trans-(4-(5-(2-(cyclobutanesulfonimidoyl)-4-((5-methyl-1H-pyrazol-3-yl)amino)phenyl]thiazol-2-yl)cyclohexyl)carbamate] | > 25000 |
| 17 | – | – | – | – | – | – | CC(C)OC(=O)N[C@H]1CC[C@H](c2ncc(-c3ccc(Nc4cnn(CCF)c4)cc3S(=N)(=O)C3CCC3)s2)CC1 (stereo partly drawn) [Example 102] | > 25000 |
| 23 | – | – | – | – | – | – | CC(C)OC(=O)N[C@H]1CC[C@H](c2ncc(-c3ccc(Nc4cnn(CCF)c4)cc3P3(=O)CCC3)s2)CC1 [Example 104, isopropyl trans-(4-(5-(4-((1-(2-fluoroethyl)-1H-pyrazol-4-yl)amino)-2-(1-oxophosphetan-1-yl)phenyl)thiazol-2-yl)cyclohexyl)carbamate] | > 25000 |
| 14 | – | – | – | – | – | – | Cc1cc(Nc2ccc(-c3cnc([C@H]4CC[C@H](NC(=O)OC(C)C)CC4)s3)c(S(=O)(=O)C3CN(C)C3)c2)n[nH]1 [Example 114, isopropyl trans-(4-(5-(4-((5-methyl-1H-pyrazol-3-yl)amino)-2-((1-methylazetidin-3-yl)sulfonyl)phenyl)thiazol-2-yl)cyclohexyl)carbamate] | > 25000 |
| 16 | – | – | – | – | – | – | Cc1cc(Nc2ccc(-c3cnc([C@H]4CC[C@H](NC(=O)OC(C)C)CC4)s3)c(S(=O)(=O)C3CCOC3)c2)n[nH]1 (stereo partly drawn) [Example 115, isopropyl trans-(4-(5-(4-((5-methyl-1H-pyrazol-3-yl)amino)-2-((tetrahydrofuran-3-yl)sulfonyl)phenyl)thiazol-2-yl)cyclohexyl)carbamate] | > 25000 |
| 7 | – | – | – | – | – | – | Cc1cc(Nc2ccc(-c3cnc([C@H]4CC[C@H](NC(=O)OC(C)C)CC4)s3)c(S(=O)(=O)C3COC3)c2)n(C)n1 [Example 117, isopropyl trans-(4-(5-(4-((1,3-dimethyl-1H-pyrazol-5-yl)amino)-2-(oxetan-3-ylsulfonyl)phenyl)thiazol-2-yl)cyclohexyl)carbamate] | 20000 |
